According to patent US11944429B2, “Automatically classifying animal behavior” (President and Fellows of Harvard College, priority 2015, dated 2024):

Tested on: mice
Assay: Innate behavioral response to odorant in odor box (3D depth imaging, AR-HMM)
Type: in vivo, mouse

For `CC1=NC(C)SC1C` (stereo not drawn) [TMT], the “behavioral response to odor-containing quadrant” value (TMT delivered to one quadrant of the box via olfactometer) was “avoided the quadrant containing the predator cue and displayed prolonged periods of immobility”, the “per frame entropy rate with self-transitions” value (after TMT exposure) was 0.64±0.02 bits and the “per frame entropy rate without self-transitions” value (after TMT exposure) was 3.66±0.08 bits. For the same compound, the “number of times the most commonly-expressed freezing trigram was expressed” value (after TMT exposure, in 300 minutes of imaging) was 716 times, the “average during-sequence velocity of freezing sequences” value (mice in square box, TMT 5% delivered to one quadrant, newly concatenated pausing modules) was −0.14±0.54 mm/sec and the “behavioral modules introduced or eliminated relative to control” value (n=15 in TMT, n=25 control, model co-trained) was “no new modules were introduced or eliminated relative to control”.
